Results: US4728729A, “Cyanoimidazole nucleoside derivatives” (Sumitomo Pharmaceuticals Co., Ltd., priority 1984, dated 1988)
Each block holds one compound with its values, some of them ahead of it.

Columns and labels:
[1] = tested on: anti-SRBC PFC response; assay: Immunosuppressive activity: anti-SRBC PFC response in vivo (Cunningham method); design: species or system mouse; details: for Suppression / PFC × 10^-3 / spleen: day 0 to 3; for Suppression: PFC measured day 4; for PFC × 10^-3 / spleen: measured day 4, AV. ± SD., n = 4, control 363 ± 51
Method: The immunosuppressive activity of the compound of the present invention was assayed in comparison with mizoribine which has been used in immunosuppressive therapy. After a sheep red blood cell preparation (SRBC) was injected in mice, the compounds were administered orally once a day on day 0 to 3 and the plaque forming cell (PFC) number was measured on day 4 by Cunningham method. [Cunningham A. J. et al. Immunol. 14, 599(1968)].

[2] = tested on: Hela (uterine cervix cancer); assay: In vitro growth inhibition assay, Hela; type: cell-based; details: Homo sapiens, monolayer culture, 72 to 120 hr
Method: (§1) In vitro growth inhibition activities were determined according to the method described in "Cancer Research", Vol. 43, p. 5851-5856 (1983).
(§2) In the case of monolayer culture (solid tumor cell lines), cells were cultured for 24 hr without the compound in order to allow cells to attach on the culture plate. Then the culture medium was changed to a fresh medium containing various concentrations of the compound. Cells were further cultured for 72 hr to 120 hr, and then removed from the culture plate by 0.125% trypsin and 0.05% EDTA solution.
(§3) Cell numbers were counted with a Coulter Counter and IC50 s were calculated.

[3] = tested on: QG-56 (lung squamous carcinoma); assay: In vitro growth inhibition assay, QG-56; type: cell-based; details: Homo sapiens; QG-56, monolayer culture, 72 to 120 hr
Method: as §1, §2, §3

[4] = tested on: solid Ehrlich carcinoma; assay: Antitumor effect on solid Ehrlich carcinoma; type: in vivo, mouse (ICR/Jcl); details: Days 1,5,9, tumors weighed day 15
Method: The antitumor activities of the compounds of the present invention were estimated according to the method described in "Cancer Research" vol. 43, p. 5851 (1983).
ICR/Jcl male mice, 5 weks old, […], […]. Each test group was composed of 6 mice. Three million cells of Ehrlich carcinoma were injected in the hind leg. The drug was administered orally at days 1, 5, and 9. After sacrificing the mice at day 15, tumors were removed and weighed. The tumor growth inhibitory ratio was calculated according to the following formula. [formula]

[5] = tested on: A549 (lung cancer); assay: In vitro growth inhibition assay, A549; type: cell-based; details: Homo sapiens; A549, monolayer culture, 72 to 120 hr
Method: as §1, §2, §3

[6] = tested on: CCRF-HSB-2 (acute lymphoblastic leukemia); assay: In vitro growth inhibition assay, CCRF-HSB-2; type: cell-based; details: Homo sapiens; CCRF-HSB-2, suspension culture, 72 hr
Method: as §1
(§4) In the case of suspension culture (lymphoma and leukemia cell lines), cells were cultured with various concentrations of the compound for 72 hr.
as §3

[7] = tested on: QG-90 (lung small cell carcinoma); assay: In vitro growth inhibition assay, QG-90; type: cell-based; details: Homo sapiens; QG-90, monolayer culture, 72 to 120 hr
Method: as §1, §2, §3

[8] = tested on: HL-60 (promyelocytic leukemia); assay: In vitro growth inhibition assay, HL-60; type: cell-based; details: Homo sapiens; HL-60, suspension culture, 72 hr
Method: as §1, §4, §3

[9] = tested on: KU-2 (renal cell carcinoma); assay: In vitro growth inhibition assay, KU-2; type: cell-based; details: Homo sapiens; KU-2, monolayer culture, 72 to 120 hr
Method: as §1, §2, §3

[10] = tested on: DU 145 (prostate cancer); assay: In vitro growth inhibition assay, DU 145; type: cell-based; details: Homo sapiens; DU 145, monolayer culture, 72 to 120 hr
Method: as §1, §2, §3

[11] = tested on: P3HR1 (Burkitt lymphoma); assay: In vitro growth inhibition assay, P3HR1; type: cell-based; details: Homo sapiens, P3HR-1; P3HR1, suspension culture, 72 hr
Method: as §1, §4, §3

[12] = tested on: SCaBER (bladder squamous carcinoma); assay: In vitro growth inhibition assay, SCaBER; type: cell-based; details: Homo sapiens, monolayer culture, 72 to 120 hr
Method: as §1, §2, §3

[13] = tested on: various types of human tumor cell lines; assay: In vitro growth inhibition on various human tumor cell lines (summary); type: cell-based
Method: as §1, §4, §2, §3

[14] = J. of Antibiotics, vol. 27 p. 775 (1974); Canada Pat. No. 1,078,736; cited from earlier work

- IC50 [2]: 4.7 µM
- IC50 [3]: 2.8 µM
- IC50 [5]: 8.5 µM
- IC50 [6]: < 3 µM
- IC50 [7]: 6.7 µM
- IC50 [8]: 0.87 µM
- IC50 [9]: 1 µM
- IC50 [10]: 4.4 µM
- IC50 [11]: 4.6 µM
- IC50 [12]: 5 µM
SMILES: N#Cc1ncn([C@@H]2O[C@H](CO)[C@@H](O)[C@H]2O)c1O [4-cyano-1-β-D-ribofuranosylimidazolium-5-olate]
- Suppression ([1]; 5 mg/day p.o.): 0%
- PFC × 10^-3 / spleen ([1]; 5 mg/day p.o.): 362 ± 123 PFC × 10^-3 / spleen
- Suppression ([1]; 25 mg/day p.o.): 99%
- PFC × 10^-3 / spleen ([1]; 25 mg/day p.o.): 4 ± 1 PFC × 10^-3 / spleen
- Suppression ([1]; 50 mg/day p.o.): 100%
- PFC × 10^-3 / spleen ([1]; 50 mg/day p.o.): 0 PFC × 10^-3 / spleen
- immunosuppressive activity compared with mizoribine, in words ([1]; oral): more active than mizoribine
- immunosuppressive activity in oral administration, in words ([1]; oral): potent activity in oral administration
- Inhibition ratio (tumor growth) ([4]; 10 mg/kg/day po): 40.1%
- Inhibition ratio (tumor growth) ([4]; 20 mg/kg/day po): 73.6%
- Inhibition ratio (tumor growth) ([4]; 40 mg/kg/day po): 99.8%
- Inhibition ratio (tumor growth) ([4]; 80 mg/kg/day po): 99.8%
- growth inhibitory activities on human tumor cell lines, in words [13]: potent growth inhibitory activities

SMILES: NC(=O)c1ncn([C@@H]2O[C@H](CO)[C@@H](O)[C@H]2O)c1O [Mizoribine, 4-carbamoyl-1-β-D-ribofuranosylimidazolium-5-olate, reference compound]
- Suppression ([1]; 5 mg/day p.o.): 0%
- PFC × 10^-3 / spleen ([1]; 5 mg/day p.o.): 496 ± 140 PFC × 10^-3 / spleen
- Suppression ([1]; 25 mg/day p.o.): 69%
- PFC × 10^-3 / spleen ([1]; 25 mg/day p.o.): 113 ± 53 PFC × 10^-3 / spleen
- Suppression ([1]; 50 mg/day p.o.): 89%
- PFC × 10^-3 / spleen ([1]; 50 mg/day p.o.): 39 ± 43 PFC × 10^-3 / spleen
- immunosuppressive and antitumor activities, in words [14]: immunosuppressive and antitumor activities

SMILES: NC(=O)c1nc[nH]c1O [4-carbamoylimidazolium-5-olate]
- immunosuppressive and antitumor activities, in words [14]: immunosuppressive and antitumor activities
